ChEMBL document CHEMBL5149964, “Discovery and development of selective aldehyde dehydrogenase 1A1 (ALDH1A1) inhibitors” (Eur J Med Chem, 2021)
One block for each molecule: values may come before it.

Tests used:
[1] = target: T1, Aldehyde dehydrogenase 1A1 (Homo sapiens, UniProt P00352); test: Inhibition of ALDH1A1 (unknown origin)
T1 sequence (P00352 whole entry): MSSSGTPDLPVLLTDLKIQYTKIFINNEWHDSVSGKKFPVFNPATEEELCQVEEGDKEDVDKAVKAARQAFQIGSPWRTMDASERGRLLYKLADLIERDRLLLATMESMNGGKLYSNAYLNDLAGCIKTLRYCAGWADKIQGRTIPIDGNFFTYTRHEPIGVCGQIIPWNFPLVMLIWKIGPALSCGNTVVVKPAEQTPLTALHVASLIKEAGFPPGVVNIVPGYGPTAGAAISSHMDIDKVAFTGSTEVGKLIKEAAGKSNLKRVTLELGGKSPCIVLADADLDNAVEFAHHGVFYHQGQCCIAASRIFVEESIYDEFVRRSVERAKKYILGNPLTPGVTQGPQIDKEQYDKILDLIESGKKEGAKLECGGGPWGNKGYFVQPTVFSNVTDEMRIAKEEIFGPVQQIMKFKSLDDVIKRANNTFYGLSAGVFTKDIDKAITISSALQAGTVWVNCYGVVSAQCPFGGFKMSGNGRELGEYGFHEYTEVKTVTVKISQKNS

TOV21G = test: Anticancer activity against human TOV-21G-RT cells assessed as inhibition of cell growth; assay type: functional, cell-based
NCI/ADR-RES = test: cells; conditions: Homo sapiens
A549 = test: Anticancer activity against human A549 cells assessed as inhibition of cell growth by MTT assay; assay type: functional, cell-based
[2] = target: T1, Aldehyde dehydrogenase 1A1; test: Inhibition of human ALDH1A1 using propionaldehyde as substrate in presence of NAD+ by UV-visible spectrophometric analysis
[3] = target: T1, Aldehyde dehydrogenase 1A1; test: Inhibition of human ALDH1A1 expressed in Escherichia coli BL21(DE3) pLys cell in presence of NAD+ by fluorescence based assay
[4] = target: T2, Retinaldehyde dehydrogenase 3 (Homo sapiens, UniProt P47895); test: Inhibition of human ALDH1A3 expressed in Escherichia coli BL21(DE3) pLys cell in presence of NAD+ by fluorescence based assay
T2 sequence (P47895 whole entry): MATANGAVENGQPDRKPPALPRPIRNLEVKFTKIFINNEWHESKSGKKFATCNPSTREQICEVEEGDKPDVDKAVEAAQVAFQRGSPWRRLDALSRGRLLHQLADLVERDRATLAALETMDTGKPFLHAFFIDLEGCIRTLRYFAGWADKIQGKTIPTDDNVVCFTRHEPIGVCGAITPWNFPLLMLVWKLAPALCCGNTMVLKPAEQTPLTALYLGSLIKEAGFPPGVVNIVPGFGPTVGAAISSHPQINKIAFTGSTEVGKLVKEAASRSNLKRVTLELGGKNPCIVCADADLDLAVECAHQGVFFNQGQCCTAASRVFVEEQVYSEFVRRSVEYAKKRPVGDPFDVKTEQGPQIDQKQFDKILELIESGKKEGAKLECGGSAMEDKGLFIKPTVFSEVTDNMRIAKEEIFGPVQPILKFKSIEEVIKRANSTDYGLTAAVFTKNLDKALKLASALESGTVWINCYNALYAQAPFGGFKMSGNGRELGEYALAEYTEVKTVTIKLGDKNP

[5] = target: T3, Aldehyde dehydrogenase 1A1 (Homo sapiens) (UniProt P00352); test: Inhibition of human ALDH1A1 assessed as fluorescent enhancement checked in presence of NAD+ by fluorescence based assay
T3 sequence (whole entry): T1 sequence (P00352 whole entry)

Structure (SMILES): CC(=O)O[C@H]1C(=O)[C@@]2(C)[C@H]([C@H](OC(=O)c3ccccc3)[C@]3(O)C[C@H](OC(=O)[C@H](O)[C@@H](NC(=O)c4ccccc4)c4ccccc4)C(C)=C1C3(C)C)[C@]1(OC(C)=O)CO[C@@H]1C[C@@H]2O [PACLITAXEL]
IC50 (TOV21G): 264 nM
IC50 (NCI/ADR-RES): 181 nM

Structure (SMILES): COc1cccc2c1C(=O)c1c(O)c3c(c(O)c1C2=O)C[C@@](O)(C(=O)CO)C[C@@H]3O[C@H]1C[C@H](N)[C@H](O)[C@H](C)O1 [DOXORUBICIN]
IC50 (TOV21G): 373 nM
IC50 (NCI/ADR-RES): 206 nM

Structure (SMILES): CC(C)CCn1c(CN2CCN(C(N)=O)CC2)nc2c1c(=O)n(C)c(=O)n2C
IC50 [2]: 210 nM

Structure (SMILES): CCC(SC1=Nc2ccccc2C2=NC(C(C)C)C(=O)N12)C(=O)Nc1ccccc1 (centres undefined)
IC50 [1]: 440 nM

Structure (SMILES): O=C(O)CN1C(=O)S/C(=C/c2ccc(OCc3nc4ccccc4c(=O)n3-c3ccccc3)cc2)C1=O
IC50 [3]: 5400 nM
IC50 [4]: 23000 nM

Structure (SMILES): Cc1cc(C=O)ccc1-c1c2cc(F)c(=O)cc-2oc2cc(O)c(F)cc12
Activity [5]: 20

Structure (SMILES): CCC(SC1=Nc2ccccc2C2=NC(CC(C)C)C(=O)N12)C(=O)Nc1ccccc1 (centres undefined)
IC50 [1]: 570 nM

The remaining lines, values ahead:

IC50 [1]: 1180 nM
Structure (SMILES): CCC(SC1=Nc2ccccc2C2=NC(CC(C)C)C(=O)N12)C(=O)N1CCc2ccccc21 (centres undefined)

IC50 [1]: 390 nM
Structure (SMILES): CCC(SC1=Nc2ccccc2C2=NC(C(C)CC)C(=O)N12)C(=O)N1CCc2ccccc21 (centres undefined)

IC50 (A549): 28 nM
Structure (SMILES): CCCCCC(=O)N1C[C@@H](CCl)c2c1ccc1ccccc21

IC50 [1]: 840 nM
Structure (SMILES): CCC(SC1=Nc2ccccc2C2=NC(C(C)C)C(=O)N12)C(=O)N1CCc2ccccc21 (centres undefined)
